Experimental data from patent publication US11739098B2 (BRISTOL-MYERS SQUIBB COMPANY, priority 2017, dated 2023).

Columns and labels:
Format in all cases: cell-based
[1] = target: T1, human TLR8 (Homo sapiens, UniProt Q9NR97); test: TLR8 inhibition reporter assay (HEK-Blue cells, SEAP reporter, R848 stimulation); details: HEK-Blue cells overexpressing human TLR8, SEAP reporter, R848 15.9 μM
T1 construct: host or cells: HEK-Blue cells (HEK293-derived reporter line)
T1 sequence (Q9NR97 27-1041): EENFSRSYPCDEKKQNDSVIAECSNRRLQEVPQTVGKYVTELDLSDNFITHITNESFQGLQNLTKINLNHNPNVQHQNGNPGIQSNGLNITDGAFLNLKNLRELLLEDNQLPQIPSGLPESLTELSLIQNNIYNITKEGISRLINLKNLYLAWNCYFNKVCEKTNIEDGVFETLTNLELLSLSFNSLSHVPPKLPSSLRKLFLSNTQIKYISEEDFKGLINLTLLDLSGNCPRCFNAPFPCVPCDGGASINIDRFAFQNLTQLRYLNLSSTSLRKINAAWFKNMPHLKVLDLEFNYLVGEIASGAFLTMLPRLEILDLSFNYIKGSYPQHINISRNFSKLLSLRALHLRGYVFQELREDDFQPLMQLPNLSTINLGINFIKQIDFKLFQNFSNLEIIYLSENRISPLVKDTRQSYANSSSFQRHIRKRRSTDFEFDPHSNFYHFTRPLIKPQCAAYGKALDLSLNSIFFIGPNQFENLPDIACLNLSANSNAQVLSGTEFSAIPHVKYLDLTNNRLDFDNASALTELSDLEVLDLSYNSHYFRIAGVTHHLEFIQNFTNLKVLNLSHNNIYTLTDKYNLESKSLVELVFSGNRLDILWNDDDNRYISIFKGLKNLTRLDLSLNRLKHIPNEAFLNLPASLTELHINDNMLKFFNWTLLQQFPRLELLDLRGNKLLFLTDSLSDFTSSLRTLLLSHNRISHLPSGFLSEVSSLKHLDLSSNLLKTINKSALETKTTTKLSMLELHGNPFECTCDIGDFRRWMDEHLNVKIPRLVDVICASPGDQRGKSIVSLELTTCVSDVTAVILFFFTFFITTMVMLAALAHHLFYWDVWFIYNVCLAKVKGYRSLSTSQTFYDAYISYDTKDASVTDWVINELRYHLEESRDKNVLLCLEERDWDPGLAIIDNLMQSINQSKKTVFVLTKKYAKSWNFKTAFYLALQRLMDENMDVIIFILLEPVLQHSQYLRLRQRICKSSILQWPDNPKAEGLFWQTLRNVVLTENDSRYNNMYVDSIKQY
In short: (§1)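 Agonists (final): TLR7 gardiquimod 7.5 μM; TLR8 R848 15.9 μM; TLR9 ODN2006 5 nM. HEK-Blue reporter cells, 30 min RT compound pre-incubation, 0.05 nM–50 μM dose range, 22 h at 37 °C, colorimetric SEAP detection medium. % inhibition relative to agonist+DMSO and known-inhibitor wells.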

[2] = target: T2, human TLR7 (Homo sapiens, UniProt Q9NYK1); test: TLR7 inhibition reporter assay (HEK-Blue cells, SEAP reporter, gardiquimod stimulation); details: HEK-Blue cells overexpressing human TLR7, SEAP reporter, gardiquimod 7.5 μM
T2 construct: host or cells: HEK-Blue cells (HEK293-derived reporter line)
T2 sequence (Q9NYK1 27-1049): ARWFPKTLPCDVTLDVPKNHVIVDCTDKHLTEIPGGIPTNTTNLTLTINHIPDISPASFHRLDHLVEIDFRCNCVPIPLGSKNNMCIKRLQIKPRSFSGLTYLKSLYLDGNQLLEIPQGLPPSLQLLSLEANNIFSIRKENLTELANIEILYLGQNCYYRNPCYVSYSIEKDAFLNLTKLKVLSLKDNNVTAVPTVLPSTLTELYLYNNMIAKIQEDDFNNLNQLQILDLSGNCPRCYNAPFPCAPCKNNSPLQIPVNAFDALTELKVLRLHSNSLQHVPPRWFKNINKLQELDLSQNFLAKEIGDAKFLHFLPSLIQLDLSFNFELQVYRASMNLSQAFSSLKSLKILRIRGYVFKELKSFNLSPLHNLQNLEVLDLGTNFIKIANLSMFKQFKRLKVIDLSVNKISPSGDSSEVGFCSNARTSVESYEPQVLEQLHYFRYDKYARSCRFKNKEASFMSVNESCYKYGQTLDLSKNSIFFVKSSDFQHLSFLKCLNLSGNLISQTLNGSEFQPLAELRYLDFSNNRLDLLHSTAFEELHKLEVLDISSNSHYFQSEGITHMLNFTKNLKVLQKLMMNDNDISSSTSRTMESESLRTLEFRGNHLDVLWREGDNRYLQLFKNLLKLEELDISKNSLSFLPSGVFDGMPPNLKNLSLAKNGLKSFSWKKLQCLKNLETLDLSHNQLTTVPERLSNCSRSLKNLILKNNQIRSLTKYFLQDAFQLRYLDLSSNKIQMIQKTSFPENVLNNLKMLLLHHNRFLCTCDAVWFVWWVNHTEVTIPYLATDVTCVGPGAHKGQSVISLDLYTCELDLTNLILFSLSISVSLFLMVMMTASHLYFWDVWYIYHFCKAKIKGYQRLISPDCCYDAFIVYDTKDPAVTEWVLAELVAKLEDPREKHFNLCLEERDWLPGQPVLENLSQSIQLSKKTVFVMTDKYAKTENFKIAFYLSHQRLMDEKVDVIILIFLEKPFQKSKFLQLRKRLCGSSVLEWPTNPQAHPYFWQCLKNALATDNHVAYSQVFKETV
In short: as §1

[3] = target: T3, human TLR9 (Homo sapiens, UniProt Q9NR96); test: TLR9 inhibition reporter assay (HEK-Blue cells, SEAP reporter, ODN2006 stimulation); details: HEK-Blue cells overexpressing human TLR9, SEAP reporter, ODN2006 5 nM
T3 construct: host or cells: HEK-Blue cells (HEK293-derived reporter line)
T3 sequence (Q9NR96 26-1032): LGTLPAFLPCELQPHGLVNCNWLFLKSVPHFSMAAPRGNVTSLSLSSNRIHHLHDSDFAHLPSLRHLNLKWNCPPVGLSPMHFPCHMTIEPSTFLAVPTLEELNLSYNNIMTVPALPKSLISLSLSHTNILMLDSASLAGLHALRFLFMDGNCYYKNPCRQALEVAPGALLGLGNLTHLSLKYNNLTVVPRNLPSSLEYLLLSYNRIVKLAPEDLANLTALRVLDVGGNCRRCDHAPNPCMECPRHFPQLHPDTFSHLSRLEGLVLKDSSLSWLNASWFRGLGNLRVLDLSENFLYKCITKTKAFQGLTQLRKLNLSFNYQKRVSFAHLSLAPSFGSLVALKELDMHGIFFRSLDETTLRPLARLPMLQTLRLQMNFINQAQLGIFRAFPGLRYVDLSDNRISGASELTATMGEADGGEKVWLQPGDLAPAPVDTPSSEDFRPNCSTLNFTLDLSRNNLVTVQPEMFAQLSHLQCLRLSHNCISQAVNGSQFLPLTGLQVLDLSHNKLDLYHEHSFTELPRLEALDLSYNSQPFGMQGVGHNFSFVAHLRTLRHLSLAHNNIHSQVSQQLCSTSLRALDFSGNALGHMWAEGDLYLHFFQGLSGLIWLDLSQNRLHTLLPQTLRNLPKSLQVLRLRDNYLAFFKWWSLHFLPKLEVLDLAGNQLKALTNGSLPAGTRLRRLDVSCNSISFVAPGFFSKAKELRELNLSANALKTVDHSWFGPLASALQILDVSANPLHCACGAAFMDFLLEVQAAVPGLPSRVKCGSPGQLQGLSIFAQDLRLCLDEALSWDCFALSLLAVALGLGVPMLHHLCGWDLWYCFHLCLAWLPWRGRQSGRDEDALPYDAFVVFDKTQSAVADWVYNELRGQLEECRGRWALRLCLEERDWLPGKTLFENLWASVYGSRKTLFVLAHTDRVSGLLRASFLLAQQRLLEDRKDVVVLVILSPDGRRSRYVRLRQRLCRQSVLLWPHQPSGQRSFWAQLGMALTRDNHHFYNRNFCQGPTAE
In short: as §1

Row | IC50 [1] | IC50 [2] | IC50 [3] | Structure (SMILES)
1 | 1000 to 50000 nM | > 3130 nM | > 50000 nM | Cc1nc2c(-c3[nH]c4ccc(C5CCN(C(=O)C[C@H](C)O)CC5)cc4c3C(C)C)ccc(C)n2n1 [Example 598, (S)-1-(4-(2-(2,5-dimethyl-[1,2,4]triazolo[1,5-a]pyridin-8-yl)-3-isopropyl-1H-indol-5-yl)piperidin-1-yl)-3-hydroxybutan-1-one]
2 | 100 to 1000 nM | 100 to 1000 nM | 1000 to 50000 nM | CNC(=O)CN1CCC(c2ccc3[nH]c(-c4ccc5cnnn5c4)c(C(C)C)c3c2)CC1 [Example 300, 2-(4-(2-([1,2,3]triazolo[1,5-a]pyridin-6-yl)-3-isopropyl-1H-indol-5-yl)piperidin-1-yl)-N-methylacetamide]
3 | > 50000 nM | > 50000 nM | 1000 to 50000 nM | CCc1c(-c2cccc3c2cnn3C)[nH]c2ccc(C3CCN(C(=O)CN[C@H]4CC[C@@H](N)CC4)CC3)cc12 [Example 519, 2-(((1s,4s)-4-aminocyclohexyl)amino)-1-(4-(3-ethyl-2-(1-methyl-1H-indazol-4-yl)-1H-indol-5-yl)piperidin-1-yl)ethan-1-one]
4 | 100 to 1000 nM | < 100 nM | 100 to 1000 nM | CC(C)c1c(-c2cnc3nccn3c2)[nH]c2ccc(C3CCN(CC(C)(C)O)CC3)cc12 [Example 761, 1-(4-(2-(imidazo[1,2-a]pyrimidin-6-yl)-3-isopropyl-1H-indol-5-yl)piperidin-1-yl)-2-methylpropan-2-ol]
5 | < 100 nM | < 100 nM | 1000 to 50000 nM | CC(C)c1c(-c2cn(C)c3ncccc23)[nH]c2ccc(C3CCN(Cc4cnn[nH]4)CC3)cc12 [Example 877, 3-(5-(1-((1H-1,2,3-triazol-5-yl)methyl)piperidin-4-yl)-3-isopropyl-1H-indol-2-yl)-1-methyl-1H-pyrrolo[2,3-b]pyridine]
6 | < 100 nM | < 100 nM | 1000 to 50000 nM | CNC(=O)CN1CCC(c2ccc3[nH]c(-c4cc(C)n5ncnc5c4)c(C(C)C)c3c2)CC1 [Example 325, 2-(4-(3-isopropyl-2-(5-methyl-[1,2,4]triazolo [1,5-a]pyridin-7-yl)-1H-indol-5-yl)piperidin-1-yl)-N-methylacetamide]
7 | < 100 nM | < 100 nM | 1000 to 50000 nM | CC(C)c1c(-c2cn(C)c3ncccc23)[nH]c2ccc(C3CCN(CCS(N)(=O)=O)CC3)cc12 [Example 783, 2-(4-(3-isopropyl-2-(1-methyl-1H-pyrrolo[2,3-b]pyridin-3-yl)-1H-indol-5-yl)piperidin-1-yl)ethane-1-sulfonamide]
8 | < 100 nM | < 100 nM | 100 to 1000 nM | Cc1cc(-c2[nH]c3ccc(C4CCNCC4)cc3c2C(C)C)cn2ccnc12 [Example 112, 6-(3-isopropyl-5-(piperidin-4-yl)-1H-indol-2-yl)-8-methylimidazo[1,2-a]pyridine]
9 | < 100 nM | < 100 nM | 100 to 1000 nM | CC(C)c1c(-c2ccc3nccn3c2)[nH]c2ccc(C3CCN(CC(=O)N(C)C)CC3)cc12 [Example 444, 2-(4-(2-(imidazo[1,2-a]pyridin-6-yl)-3-isopropyl-1H-indol-5-yl)piperidin-1-yl)-N,N-dimethylacetamide]
10 | < 100 nM | < 100 nM | 1000 to 50000 nM | Cc1cc(-c2[nH]c3ccc(C4CCN(C(=O)CCN5CCC(F)(F)CC5)CC4)cc3c2C(C)C)cn2nnnc12 [Example 628, 3-(4,4-difluoropiperidin-1-yl)-1-(4-(3-isopropyl-2-(8-methyltetrazolo[1,5-a]pyridin-6-yl)-1H-indol-5-yl)piperidin-1-yl)propan-1-one]
11 | 100 to 1000 nM | < 100 nM | 1000 to 50000 nM | CC(C)c1c(-c2ccnc3[nH]ncc23)[nH]c2ccc(C3CCN(C(=O)c4cscn4)CC3)cc12 [Example 611, (4-(3-isopropyl-2-(1H-pyrazolo[3,4-b]pyridin-4-yl)-1H-indol-5-yl)piperidin-1-yl)(thiazol-4-yl)methanone]
